Source: US20140315781A1, “METHODS OF TREATING FATTY LIVER DISEASE WITH HELMINTH-DERIVED GLYCAN-CONTAINING COMPOUNDS” (priority 2011, published 2014)

Tests used:
[1] = system: human FXRα promoter 1 (FXRα1/α2); assay: Luciferase reporter assay, FXRα promoter 1, in HepG2 cells; assay type: cell-based; conditions: with or without LNnT, p<0.05, FIG. 4b
Experimental: HepG2 cells, obtained from ATCC (#HB-8065), were cultured in Eagle's minimal essential media supplemented with non-essential amino acids, L-glutamine, sodium pyruvate, sodium bicarbonate, 10% fetal bovine serum, and antibiotics.
(§1) The upstream promoter 1 and downstream promoter 2 regions of the human FXRα gene were cloned into the pGL3-basic luciferase reporter construct and transfected into HepG2 cells in a 96-well format or primary hepatocytes in a 24-well format using a luciferase system (Promega). A β-galactosidase reporter construct was used as a transfection control. Promoters 1 and 2 of the human FXRα gene were PCR amplified and cloned into the pGL3-basic luciferase reporter (Promega). Point mutations were introduced using the site-directed mutagenesis kit (Stratagene).
Both human and mouse FXRα contain two major promoters (FIG. 2c). […] To examine the signalling pathways through which LNFPIII regulates FXRα activity, the activities of luciferase reporters driven by upstream (promoter 1) or downstream (promoter 2) regulatory regions were examined in HepG2 cells (human hepatoma cells). Reporters driven by a 2 kb fragment of human FXRα promoter 1 or a 0.13 kb fragment of human FXRα promoter 2 were transfected into HepG2 cells. Twenty-four hours after transfection, cells were treated with or without LNFPIII (20 μg/ml) or SEA (2 μg/ml) for an additional 24 hours.

[2] = system: primary mouse hepatocytes
Erk [3] = assay: Immunoblot of phospho-Erk in primary hepatocytes; assay type: cell-based, mouse; conditions: PD98059 1 hour prior to overnight LNFPIII, FIG. 3g
Experimental: FIG. 3G (left panel) is an immunoblot for levels of phospho-Erk (p-Erk) and total Erk (t-Erk) in primary hepatocytes treated with vehicle, LNFPIII, PD90859, or LNFPIII+PD98059. Cells were pretreated with PD98059 for 1 hour prior to overnight LNFPIII treatment. Actin levels served as a loading control. FIG. 3G (right panel) is a bar graph depicting the densitometric analysis of the immunoblot from FIG. 3G (left panel). Results are presented as mean±SEM.
FIG. 3H is an immunoblot for levels of p-Erk and t-Erk in primary hepatocytes treated with vehicle, SEA, or SEA+PD98059. Cells were pretreated with PD98059 for 1 hour prior to overnight SEA treatment. Actin levels served as a loading control.
(§2) For Western blot analyses, tissue and cell lysates were prepared in lysis buffer (20 mM Tris-HCl, 100 mM NaCl, 1 mM EDTA, NP-40, glycerol, PMSF, and DTT) in the presence of protease and phosphatase inhibitors. The four FXRα (NR1H4) isoforms were based on previous reports, which were originally designated as FXRα1/α2 and FXRβ1/β2 (Huber et al., Gene 2002; 290:35-43; Zhang et al., JBC 2003; 278:104-10). The latter were renamed FXRα3/α4 to avoid confusion with rodent FXRβ (NR1H5) (Lefebvre et al., Physiol Rev 2009; 89:147-91).

[4] = system: primary mouse hepatocytes; conditions: PD98059 1 hour prior to overnight LNFPIII, FIG. 3i
[5] = system: human FXRα promoter 2 (FXRα3/α4); assay: Luciferase reporter assay, FXRα promoter 2, in HepG2 cells; assay type: cell-based
Text: as §1
To examine the signalling pathways through which LNFPIII regulates FXRα activity, the activities of luciferase reporters driven by upstream (promoter 1) or downstream (promoter 2) regulatory regions were examined in HepG2 cells (human hepatoma cells). Reporters driven by a 2 kb fragment of human FXRα promoter 1 or a 0.13 kb fragment of human FXRα promoter 2 were transfected into HepG2 cells. Twenty-four hours after transfection, cells were treated with or without LNFPIII (20 μg/ml) or SEA (2 μg/ml) for an additional 24 hours.
To gain insight into the region of promoter 2 responsible for promoter activation, the minimal LNFPIII responsive region was determined through a series of promoter deletion mutants.

Erk [6] = assay: Immunoblot of phospho-Erk in liver lysates of treated mice; assay type: in vivo; conditions: FIG. 3f
Experimental: FIG. 3F (top panel) is an immunoblot for levels of phosphor-Erk (p-Erk) and total Erk (t-Erk) in liver lysates prepared from vehicle or LNFPIII treated mice (n=5, showing representative 3 samples/treatment). Actin levels served as a loading control. FIG. 3F (bottom panel) is a bar graph depicting the densitometric analysis of the immunoblot from FIG. 3F (top panel). Results are presented as mean±SEM. *p<0.05.
as §2

[7] = system: Male C57BL/6J mice on a high-fat, high carbohydrate diet; assay: High fat diet-induced steatosis and liver function in mice (histology, liver triglycerides, circulating AST/ALT); assay type: in vivo; conditions: vs vehicle
Experimental: (§3) Male C57BL/6J mice (8-10 weeks of age) were placed on a high-fat, high carbohydrate diet (F3282, Bio-Serv) for the duration for the experiments. After 6 weeks of the special diet, mice were intraperitoneally injected 2 times per week with 25 μg of dextran (vehicle) or 25 μg of LNFPIII conjugated with dextran (LNFPIII-dex). A second cohort was treated with 0.9% NaCl or SEA dissolved in 0.9% NaCl (25 μg/mouse/twice a week). Metabolic studies started 4 weeks after LNFPIII or SEA treatment and were conducted after 6 hrs of fasting. Animals were sacrificed at the 6th week of treatment for serum and tissue collection. Most experiments were repeated in two cohorts (n=4-7/treatment). Body weight and food intake were monitored weekly.
Circulating levels of ALT and AST, markers of overall liver function, were measured using commercial kits as described in Liu et al. (JBC 2011; 286:1237-47).
The Dana Farber/Harvard Cancer Center Research Pathology Cores provided all histological services and preliminary assessments by a pathologist. Briefly, tissues were collected from animals and fixed in 10% formalin (liver) for 48 hours. Fixed samples were rinsed in PBS and sent to the histology core to be paraffin embedded, sectioned, and stained with hematoxylin and eosin according to standard procedures. A staff pathologist analyzed the samples for signs of inflammation, fatty liver, fibrosis, and other pathologies associated with the liver.
In this example, the ability of LNFPIII or SEA to prevent high fat diet-induced steatosis and preserve liver function was examined. Mice were injected with either vehicle (dextran, 25 μg), LNFPIII conjugated to dextran (25 μg), or SEA twice a week (n=5 for each group) as described in the Methods section.
To determine whether overall liver function was affected by LNFPIII treatment, circulating levels of AST and ALT were also examined.

livers of mice = conditions: mouse, in vivo
FXRα−/− mice = assay: LNFPIII treatment of FXRα−/− mice (liver mRNA, hepatic triglyceride, serum AST/ALT); assay type: in vivo
Text: Male C57BL/6J mice (8-10 weeks of age) were purchased from The Jackson Laboratory (Bar Harbor, Me.). FXR α−/− mice (both in the C57BL/6J background) were obtained from The Jackson Laboratory. All animal studies were approved by the Harvard Medical Area Standing Committee on Animals.
as §3
Furthermore, to determine whether FXRα mediated the effects of LNFPIII on lipogenesis and fatty acid oxidation, primary hepatocytes were isolated from wild type or FXRα^−/− mice, cultured, and tested for de novo lipogenesis and fatty acid oxidation.

[8] = FIG. 2d, primary hepatocytes treated for 24 hours
[9] = FIG. 2d, primary hepatocytes treated for 24 hours, p<0.05
[10] = high fat diet mice, p<0.05, FIG. 1d/1e

Molecule: CC(=O)N[C@H]1[C@H](O[C@H]2[C@@H](O)[C@@H](CO)O[C@@H](O[C@H]3[C@H](O)[C@@H](O)C(O)O[C@@H]3CO)[C@@H]2O)O[C@H](CO)[C@@H](O[C@@H]2O[C@H](CO)[C@H](O)[C@H](O)[C@H]2O)[C@@H]1O (mixture of isomers) [LNnT, lacto-N-neotetraose]
- activity of the FXRα1/α2 promoter in a luciferase assay [1]: significantly increased
- lipogenesis in cultured primary hepatocytes [2]: blocked lipogenesis in cultured primary hepatocytes in a dose-dependent manner

Molecule: COc1cccc(-c2cc(=O)c3ccccc3o2)c1N [PD98059, reference compound]
- activation of Erk in response to LNFPIII in presence of PD98059 (Erk [3]): completely abolished
- ability of LNFPIII to increase β-oxidation in presence of PD98059 [4]: completely abolished
- responsiveness of the FXRα promoter 2 to LNFPIII in presence of PD98059 [5]: completely abolished
- ability of LNFPIII to suppress lipid synthesis in presence of PD98059 [2]: completely abolished

Molecule: lacto-N-fucopentaose III [LNFPIII]
- Erk phosphorylation in liver (Erk [6]): increased
- β-oxidation gene expression in primary hepatocytes (primary hepatocytes): did not affect
- FXRα1/α2 mRNA expression (primary hepatocytes; [8]): remained unchanged
- LXRα mRNA expression (primary hepatocytes; [8]): remained unchanged
- BSEP transcripts (primary hepatocytes; [9]): significantly upregulated
- OATP transcripts (primary hepatocytes; [9]): significantly upregulated
- PLTP transcripts (primary hepatocytes; [9]): significantly upregulated
- SHP transcripts (primary hepatocytes; [9]): significantly upregulated
- FXRα3/α4 transcripts (primary hepatocytes; FIG. 2d, primary hepatocytes treated for 24 hours, vs vehicle, p<0.05): significantly upregulated
- high fat diet-induced hepatic lipid accumulation (histology) ([7]; 25 μg i.p. twice a week, 6 weeks, FIG. 1a): less high fat diet-induced hepatic lipid accumulation
- levels of triglycerides in livers ([7]; 25 μg twice a week, p<0.05, FIG. 1b): significantly lower levels
- circulating levels of ALT [7, 10]: significantly reduced levels
- circulating levels of AST [7, 10]: significantly reduced levels
- ability of LNFPIII to increase β-oxidation in presence of PD98059 [4]: dependent on Erk activity and FXRα
- activation of FXRα promoter 2 reporter with mutated overlapping AP-1 sites (site 3) ([5]; HepG2, site-directed mutagenesis, FIG. 3d, 3e): two overlapping AP-1 sites were required for the activation
- ACC1/2 mRNA in livers (livers of mice): significantly reduced
- Arg1 (M2 marker) mRNA in liver tissue (livers of mice): significantly higher levels
- F4/80 mRNA in liver tissue (livers of mice): significantly lower levels
- FAS mRNA in livers (livers of mice): significantly reduced
- IL-1β mRNA in liver tissue (livers of mice): unchanged
- IL-6 mRNA in liver tissue (livers of mice): significantly lower levels
- Mgl1 (M2 marker) mRNA in liver tissue (livers of mice): significantly higher levels
- SCD1 mRNA in livers (livers of mice): significantly reduced
- SREBP-1c mRNA in livers (livers of mice): significantly reduced
- β-oxidation gene expression in livers (livers of mice): did not affect
- reduction in serum ALT concentration, wild type vs FXR−/− mice (FXRα−/− mice; FIG. 2i, p<0.05): required FXRα expression
- reduction in serum AST concentration, wild type vs FXR−/− mice (FXRα−/− mice; FIG. 2i, p<0.05): required FXRα expression
- reduction in hepatic triglyceride content, wild type vs FXR−/− mice (FXRα−/− mice; FIG. 2h, p<0.05): required FXRα expression
- Acc1 mRNA expression in FXRα−/− mice (FXRα−/− mice; livers, FIG. 2f): did not reduce
- Acc2 mRNA expression in FXRα−/− mice (FXRα−/− mice; livers, FIG. 2f): did not reduce
- Fas mRNA expression in FXRα−/− mice (FXRα−/− mice; livers, FIG. 2f): did not reduce
- Scd1 mRNA expression in FXRα−/− mice (FXRα−/− mice; livers, FIG. 2f): did not reduce
- Srebp mRNA expression in FXRα−/− mice (FXRα−/− mice; livers, FIG. 2f): did not reduce
- ability of LNFPIII to suppress lipid synthesis in presence of PD98059 [2]: dependent on Erk activity and FXRα
- lipogenesis in primary hepatocytes ([2]; 20 μg/ml, 24 hours): significantly suppressed
